Source: PubChem BioAssay AID493139 (Sanford-Burnham Center for Chemical Genomics, 2011)
Activity calls are given as the source filed them. No rule for the calls is given here.

Biological target: Alkaline phosphatase, germ cell type (Homo sapiens) (UniProt P10696)
Test: effect of analogs on PLAP-like activity, SAR follow-up, selectivity assay for mouse IAP activator project, biochemical, human placental-like ALPPL2 isozyme (AID 493139)
Details: purified human placental-like alkaline phosphatase, enzymatic activity

Sequence of Alkaline phosphatase, germ cell type (Homo sapiens) (P10696 whole entry, looked up): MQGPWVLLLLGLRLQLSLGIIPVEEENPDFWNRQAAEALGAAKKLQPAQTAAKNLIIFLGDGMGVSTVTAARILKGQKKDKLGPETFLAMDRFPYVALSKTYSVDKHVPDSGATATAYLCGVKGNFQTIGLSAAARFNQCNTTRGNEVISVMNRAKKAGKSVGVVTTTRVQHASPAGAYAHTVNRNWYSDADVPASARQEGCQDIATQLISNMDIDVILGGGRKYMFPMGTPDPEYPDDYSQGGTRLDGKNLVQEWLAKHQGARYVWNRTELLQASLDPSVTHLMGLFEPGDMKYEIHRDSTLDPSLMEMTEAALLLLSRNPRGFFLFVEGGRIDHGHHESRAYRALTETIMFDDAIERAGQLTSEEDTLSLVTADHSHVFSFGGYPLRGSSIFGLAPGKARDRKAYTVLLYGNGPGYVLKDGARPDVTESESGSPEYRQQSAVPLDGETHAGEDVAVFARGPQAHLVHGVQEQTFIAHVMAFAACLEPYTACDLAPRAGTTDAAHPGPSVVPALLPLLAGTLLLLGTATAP

SMILES	IC50 (inhibition of PLAP activity)
CCOC(=O)N1CCN(S(=O)(=O)c2ccc3[nH]c(=O)oc3c2)CC1	> 100 µM (inactive)
COc1ccc(CNC(=O)CSc2sc3c(O)cc(=O)[nH]c3c2C#N)cc1OC	> 100 µM (inactive)
C/C(=N\NC(=O)c1cc(O)c(O)c(O)c1)c1ccncc1	> 100 µM (inactive)
CC(C(=O)Nc1cccc(C(=O)O)c1)N1C(=O)/C(=C\c2ccco2)SC1=S (centres undefined)	> 100 µM (inactive)
N#Cc1c(SCC(=O)Nc2cccc(F)c2)sc2c(O)cc(=O)[nH]c12	> 100 µM (inactive)
Cc1ccc(/C=N/NC(=O)c2cc(O)c(O)c(O)c2)cc1	> 100 µM (inactive)
O=C(N/N=C/C1CC2CCC1C2)c1cc(O)c(O)c(O)c1 (centres undefined)	> 100 µM (inactive)
Cc1ccc(/C=C2\SC(=S)N(C3CCS(=O)(=O)C3)C2=O)o1 (centres undefined)	> 100 µM (inactive)
O=C(CCN1C(=O)/C(=C\c2ccco2)SC1=S)Nc1ccc(C(=O)O)c(O)c1	> 100 µM (inactive)
CC(C(=O)NCCc1ccc(O)c(O)c1)N1C(=O)/C(=C\c2ccco2)SC1=S (centres undefined)	> 100 µM (inactive)
COC(=O)NNC(=O)c1cc(OC)c(OC)c(OC)c1	> 100 µM (inactive)
O=C(N/N=C/c1ccc(F)cc1)c1cc(O)c(O)c(O)c1	> 100 µM (inactive)
O=C(CN1C(=O)/C(=C/c2ccco2)SC1=S)N[C@@H]1CSC[C@@H]1O	> 100 µM (inactive)
O=C(CN1C(=O)/C(=C/c2ccco2)SC1=S)NC1CCS(=O)(=O)C1 (centres undefined)	> 100 µM (inactive)
O=C(N/N=C/C1CC=CCC1)c1cc(O)c(O)c(O)c1 (centres undefined)	> 100 µM (inactive)
S=C(NCCC(c1ccccc1)c1ccccc1)Nc1ccc(Cl)cc1Cl	72.1 µM
CCN(C(=O)C(C)N1C(=O)/C(=C/c2ccco2)SC1=S)C1CCS(=O)(=O)C1 (centres undefined)	> 100 µM (inactive)
O=C(C1CCN(S(=O)(=O)c2ccc3[nH]c(=O)oc3c2)CC1)N1CC=C(c2ccccc2)CC1	> 100 µM (inactive)
CCc1ccc(NC(=O)CN(C)S(=O)(=O)c2ccc3[nH]c(=O)oc3c2)cc1	> 100 µM (inactive)
O=C(CCN1C(=O)/C(=C/c2ccco2)SC1=S)Nc1ccc(O)cc1C(=O)O	> 100 µM (inactive)

SMILES	IC50 (inhibition of PLAP activity)
CCCSc1nnc(NC(=O)CSc2sc3c(O)cc(=O)[nH]c3c2C#N)s1	> 100 µM (inactive)
CCN(CC)C(=O)CSc1sc2c(O)cc(=O)[nH]c2c1C#N	> 100 µM (inactive)
Cc1cc(=O)oc2cc(NC(=S)NCCC(c3ccccc3)c3ccccc3)ccc12	> 100 µM (inactive)
O=C(CCNS(=O)(=O)c1ccc2[nH]c(=O)oc2c1)Nc1cccc(-c2ccno2)c1	> 100 µM (inactive)
COc1cc(C(=O)NN=Cc2ccccn2)cc(OC)c1OC	31.3 µM
N#Cc1c(SCC(=O)Nc2ccccc2C(F)(F)F)sc2c(O)cc(=O)[nH]c12	> 100 µM (inactive)
CC(C)NC(=O)CSc1sc2c(O)cc(=O)[nH]c2c1C#N	> 100 µM (inactive)
COc1ccccc1NC(=O)CCNS(=O)(=O)c1ccc2[nH]c(=O)oc2c1	> 100 µM (inactive)
O=C(CN1C(=O)/C(=C/c2ccco2)SC1=S)Nc1cccc(C(=O)O)c1	> 100 µM (inactive)
COc1ccc(NC(=O)CCNS(=O)(=O)c2ccc3[nH]c(=O)oc3c2)cc1Cl	> 100 µM (inactive)
Cc1csc(NC(=O)CSc2sc3c(O)cc(=O)[nH]c3c2C#N)n1	> 100 µM (inactive)
N#Cc1c(SCC(=O)Nc2nccs2)sc2c(O)cc(=O)[nH]c12	> 100 µM (inactive)
O=C(CN1C(=O)/C(=C/c2ccco2)SC1=S)NCCc1ccc(O)cc1	> 100 µM (inactive)
O=C(NN=Cc1cccnc1)c1cc(O)c(O)c(O)c1	> 100 µM (inactive)
COc1cc(C(=O)NNC(=O)C2CC2)cc(OC)c1OC	> 100 µM (inactive)
N#Cc1cccc(NC(=O)CSc2sc3c(O)cc(=O)[nH]c3c2C#N)c1	> 100 µM (inactive)
CCOc1ccccc1CNC(=O)CCNS(=O)(=O)c1ccc2[nH]c(=O)oc2c1	> 100 µM (inactive)
COc1ccc(CNC(=O)CSc2sc3c(O)cc(=O)[nH]c3c2C#N)cc1	> 100 µM (inactive)
CCOC(=O)N1CCC(NC(=O)CSc2sc3c(O)cc(=O)[nH]c3c2C#N)CC1	> 100 µM (inactive)
O=C(CN1C(=O)/C(=C\c2ccco2)SC1=S)Nc1ccc(O)cc1C(=O)O	> 100 µM (inactive)

SMILES	IC50 (inhibition of PLAP activity)
O=S(=O)(Nc1ncccn1)c1ccc(NC(=S)NCCC(c2ccccc2)c2ccccc2)cc1	> 100 µM (inactive)
O=C(CN1C(=O)/C(=C\c2ccco2)SC1=S)Nc1cccc(C(=O)O)c1	> 100 µM (inactive)
O=C(CN1C(=O)/C(=C/c2ccco2)SC1=S)Nc1ccc2nccnc2c1	> 100 µM (inactive)
N#Cc1c(SCC(=O)Nc2ccc(C(F)(F)F)cc2)sc2c(O)cc(=O)[nH]c12	> 100 µM (inactive)
O=C(CN1C(=O)/C(=C/c2ccco2)SC1=S)Nc1ccc(C(=O)O)c(O)c1	78.4 µM
COc1cc(C(=O)NNC(=S)NC(=O)c2ccccc2C)cc(OC)c1OC	35.7 µM
CCOC(=O)NC(=O)CSc1sc2c(O)cc(=O)[nH]c2c1C#N	> 100 µM (inactive)
COc1ccc(NC(=O)CSc2sc3c(O)cc(=O)[nH]c3c2C#N)c(OC)c1	> 100 µM (inactive)
O=C(CN1C(=O)/C(=C\c2ccco2)SC1=S)Nc1ccc(C(=O)O)cc1	> 100 µM (inactive)
N#Cc1c(SCC(=O)Nc2nc3ccccc3s2)sc2c(O)cc(=O)[nH]c12	> 100 µM (inactive)
CCc1nnc(NC(=O)CSc2sc3c(O)cc(=O)[nH]c3c2C#N)s1	> 100 µM (inactive)
O=C(CCCN1C(=O)/C(=C/c2ccco2)SC1=S)Nc1ccccc1	> 100 µM (inactive)
CCOc1cccc(NC(=O)CSc2sc3c(O)cc(=O)[nH]c3c2C#N)c1	> 100 µM (inactive)
N#Cc1c(SCC(=O)Nc2nncs2)sc2c(O)cc(=O)[nH]c12	> 100 µM (inactive)
N#Cc1c(SCC(=O)Nc2ccc(Cl)cc2Cl)sc2c(O)cc(=O)[nH]c12	> 100 µM (inactive)
CCOc1ccc2nc(NC(=O)CN(C)S(=O)(=O)c3ccc4[nH]c(=O)oc4c3)sc2c1	> 100 µM (inactive)
O=C(N/N=C/c1ccco1)c1cc(O)c(O)c(O)c1	> 100 µM (inactive)
COC(=O)c1ccc(C)c(NC(=O)CSc2sc3c(O)cc(=O)[nH]c3c2C#N)c1	> 100 µM (inactive)

Second part, the compound after the results:

IC50 (inhibition of PLAP activity)	SMILES
> 100 µM (inactive)	CC(C)C(C(=O)NC1CCS(=O)(=O)C1)N1C(=O)/C(=C\c2ccco2)SC1=S (centres undefined)
> 100 µM (inactive)	O=[N+]([O-])c1ccc(NC(=S)NCCC(c2ccccc2)c2ccccc2)cc1
> 100 µM (inactive)	Cc1ccc(C)c(NC(=O)CCNS(=O)(=O)c2ccc3[nH]c(=O)oc3c2)c1
> 100 µM (inactive)	COc1cc(Cl)c(C)cc1NC(=O)CSc1sc2c(O)cc(=O)[nH]c2c1C#N
> 100 µM (inactive)	COc1ccc(OC)c(NC(=O)CSc2sc3c(O)cc(=O)[nH]c3c2C#N)c1
> 100 µM (inactive)	COc1ccccc1CNC(=O)CCNS(=O)(=O)c1ccc2[nH]c(=O)oc2c1
27 µM	O=C(CN1C(=O)/C(=C/c2ccco2)SC1=S)Nc1ccc(O)c(C(=O)O)c1
15.3 µM	COc1cc(C(=O)NNc2nc3cc4c(cc3s2)OCO4)cc(OC)c1OC
> 100 µM (inactive)	CC(C(=O)NCCc1ccc(O)cc1)N1C(=O)/C(=C/c2ccco2)SC1=S (centres undefined)
21.9 µM	CC(C(=O)Nc1ccc(C(=O)O)cc1)N1C(=O)/C(=C\c2ccco2)SC1=S (centres undefined)
> 100 µM (inactive)	COc1ccc(N2CCN(C(=O)CN3C(=O)/C(=C\c4ccco4)SC3=S)CC2)cc1
> 100 µM (inactive)	N#Cc1c(SCC(=O)NCc2ccc3c(c2)OCO3)sc2c(O)cc(=O)[nH]c12
> 100 µM (inactive)	Cc1ccc(Cl)cc1NC(=O)CSc1sc2c(O)cc(=O)[nH]c2c1C#N
32.6 µM	CC(C(=O)Nc1ccc(C(=O)O)c(O)c1)N1C(=O)/C(=C\c2ccco2)SC1=S (centres undefined)
> 100 µM (inactive)	CCOc1ccccc1NC(=O)CCNS(=O)(=O)c1ccc2[nH]c(=O)oc2c1
> 100 µM (inactive)	CCSc1nnc(NC(=O)CSc2sc3c(O)cc(=O)[nH]c3c2C#N)s1
> 100 µM (inactive)	O=C(N/N=C/c1ccccc1F)c1cc(O)c(O)c(O)c1
> 100 µM (inactive)	Cc1ccc(NC(=O)CCNS(=O)(=O)c2ccc3[nH]c(=O)oc3c2)cc1N(C)C
> 100 µM (inactive)	COc1ccc(NC(=O)C(CC(C)C)NS(=O)(=O)c2ccc3[nH]c(=O)oc3c2)cc1 (centres undefined)
> 100 µM (inactive)	O=C(CCNS(=O)(=O)c1ccc2[nH]c(=O)oc2c1)Nc1ccccc1
40.7 µM	COc1ccc(NC(=S)NCCC(c2ccccc2)c2ccccc2)cc1
> 100 µM (inactive)	COc1cccc(CNC(=O)CCNS(=O)(=O)c2ccc3[nH]c(=O)oc3c2)c1
> 100 µM (inactive)	Cc1ccc(NC(=O)CCNS(=O)(=O)c2ccc3[nH]c(=O)oc3c2)cc1F
> 100 µM (inactive)	CCN(C(=O)CN1C(=O)/C(=C\c2ccco2)SC1=S)C1CCS(=O)(=O)C1 (centres undefined)
53.5 µM	O=C(NNC(=O)c1cc(O)c(O)c(O)c1)NC1CCCCC1
63.5 µM	FC(F)(F)c1cccc(NC(=S)NCCC(c2ccccc2)c2ccccc2)c1
